Structures are written as SMILES. Where only a bound is given, the exact number is not on record here.

Experimental findings from US10280159B2 (AbbVie Deutschland GmbH & Co. KG, priority 2015, dated 2019) are described below.

Assay type in all cases: cell-based
The target in experiment [1] is T1, human S1PR5 (Homo sapiens, UniProt Q9H228).
T1 construct: host or cells: CHO-K1
The experiment in a line: Intracellular Ca2+ release (FLIPR) agonist potency, S1P5. The note with it: recombinant CHO-K1 cells expressing human S1PR5, aequorin, Gq/i5; Calcium 5 FLIPR; read-out: S1P5 EC50 range. A digest of the protocol:
(§1)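 Agonist potency was determined from intracellular Ca2+ release in engineered CHO-K1 cells (human receptor, aequorin, Gq/i5) using FLIPR Tetra, with phospho-fingolimod as reference agonist for normalization.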

Experiment [2] has as its target T2, human S1PR1 (Homo sapiens, UniProt P21453).
T2 construct: host or cells: CHO-K1
The experiment in a line: Intracellular Ca2+ release (FLIPR) agonist potency, S1P1. The note with it: recombinant CHO-K1 cells expressing human S1PR1, aequorin, Gq/i5; Calcium 5 FLIPR; read-out: S1P1 EC50. A digest of the protocol:
as §1

The target of experiment [3] is T3, human S1PR3 (Homo sapiens, UniProt Q99500).
T3 construct: host or cells: CHO-K1
T3 sequence (Q99500 whole entry): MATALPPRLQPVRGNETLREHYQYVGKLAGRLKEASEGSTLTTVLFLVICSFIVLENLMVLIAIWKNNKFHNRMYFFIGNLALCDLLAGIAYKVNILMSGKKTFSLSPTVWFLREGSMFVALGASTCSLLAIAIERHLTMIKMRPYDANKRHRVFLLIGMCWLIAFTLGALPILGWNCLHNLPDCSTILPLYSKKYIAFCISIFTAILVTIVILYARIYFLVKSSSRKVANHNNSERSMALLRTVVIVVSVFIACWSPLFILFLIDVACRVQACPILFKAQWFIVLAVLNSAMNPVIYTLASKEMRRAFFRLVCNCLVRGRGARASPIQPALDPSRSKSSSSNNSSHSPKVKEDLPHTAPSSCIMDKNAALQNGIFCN
The experiment in a line: Intracellular Ca2+ release (FLIPR) agonist potency, S1P3. As to conditions: recombinant CHO-K1 cells expressing human S1PR3, aequorin, Gq/i5; Calcium 5 FLIPR; read-out: S1P3 EC50. On the procedure: Agonistic activity was measured using the method described below.
Intracellular Ca^2+ Release
Agonist potency and intrinsic activity was assessed by measurement of intracellular Ca^2+ release. Recombinant CHO-K1 cells (Euroscreen, Brussels, Belgium) expressing human S1PR5, S1PR1, S1PR3 or S1PR4 receptors, aequorin, and GTP binding protein Gq/i5 were cultured using a medium containing nutrient mixture F-12 Ham (Sigma-Aldrich) with 10% FBS, and 100 μg/mL gentamicin and equilibrated at 5% CO2.
Phospho-fingolimod was used as positive control. Antagonists were pre-incubated for 10 min with cells before addition of the agonist (phospho-fingolimod at EC80). Measurements were performed using a fluorometric imaging plate reader FLIPR®tetra (Molecular Devices). Agonist at the human S1P receptors were characterized by deducing EC50 (potency) values from a nonlinear fit to the measured fluorescence raw data after normalization to the reference agonist (phospho-fingolimod) curve.

In experiment [4] the target is T4, human S1PR4 (Homo sapiens, UniProt O95977).
T4 construct: host or cells: CHO-K1
T4 sequence (O95977 1-384): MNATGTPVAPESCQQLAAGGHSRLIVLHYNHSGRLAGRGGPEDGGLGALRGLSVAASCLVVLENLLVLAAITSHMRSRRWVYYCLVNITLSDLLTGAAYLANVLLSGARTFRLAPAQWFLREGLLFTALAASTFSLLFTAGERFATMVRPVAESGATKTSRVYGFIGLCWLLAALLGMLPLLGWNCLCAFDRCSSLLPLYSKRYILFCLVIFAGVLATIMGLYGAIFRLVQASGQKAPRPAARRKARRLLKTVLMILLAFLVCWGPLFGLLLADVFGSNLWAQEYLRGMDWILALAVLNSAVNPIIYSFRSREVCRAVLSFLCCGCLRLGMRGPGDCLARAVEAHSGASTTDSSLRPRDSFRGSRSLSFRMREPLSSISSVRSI
In words: Intracellular Ca2+ release (FLIPR) agonist potency, S1P4. As to conditions: recombinant CHO-K1 cells expressing human S1PR4, aequorin, Gq/i5; Calcium 5 FLIPR; read-out: S1P4 EC50. An outline of the steps: as §1

T2 sequence (P21453 whole entry): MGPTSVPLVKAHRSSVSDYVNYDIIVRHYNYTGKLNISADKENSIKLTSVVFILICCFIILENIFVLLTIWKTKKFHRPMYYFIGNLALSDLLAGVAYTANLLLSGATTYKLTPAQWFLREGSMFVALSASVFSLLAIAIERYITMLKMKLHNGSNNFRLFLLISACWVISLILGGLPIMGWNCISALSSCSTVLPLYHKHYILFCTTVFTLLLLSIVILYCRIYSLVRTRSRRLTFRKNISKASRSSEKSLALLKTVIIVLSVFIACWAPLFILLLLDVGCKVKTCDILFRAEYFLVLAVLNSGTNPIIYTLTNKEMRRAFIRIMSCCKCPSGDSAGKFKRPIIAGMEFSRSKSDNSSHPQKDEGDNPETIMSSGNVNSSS
T1 sequence (Q9H228 whole entry): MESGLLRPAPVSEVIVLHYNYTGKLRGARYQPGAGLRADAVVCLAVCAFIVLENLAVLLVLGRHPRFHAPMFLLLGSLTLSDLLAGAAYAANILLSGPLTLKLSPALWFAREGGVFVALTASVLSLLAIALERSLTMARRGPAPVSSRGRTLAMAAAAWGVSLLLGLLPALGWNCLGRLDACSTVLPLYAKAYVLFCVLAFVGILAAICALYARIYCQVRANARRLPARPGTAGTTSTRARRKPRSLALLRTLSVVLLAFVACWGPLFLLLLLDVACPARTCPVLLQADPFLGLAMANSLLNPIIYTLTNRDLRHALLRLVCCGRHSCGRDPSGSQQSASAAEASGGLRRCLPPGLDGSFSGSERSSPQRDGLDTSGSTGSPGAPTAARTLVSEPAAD

What is called EC50 is the concentration needed to bring the measured effect to its halfway point. As for `O=C(O)C12CC(NC3CCc4cc(OCc5c(Cl)cccc5Cl)ccc4C3)(C1)C2` (centres unmarked) [Compound 32, 3-((6-((2,6-dichlorobenzyl)oxy)-1,2,3,4-tetrahydronaphthalen-2-yl)amino)bicyclo[1.1.1]pentane-1-carboxylic acid], the concentration giving a half-maximal response (EC50) is under 0.01 µM in experiment [1], over 1 µM in experiment [2], over 1 µM in experiment [3] and under 1 µM in experiment [4].
With `CC(NC1CCc2cc(OCc3c(Cl)cccc3Cl)ccc2C1)C(=O)O` (centres unmarked) [Compound 33, 2-((6-((2,6-dichlorobenzyl)oxy)-1,2,3,4-tetrahydronaphthalen-2-yl)amino)propanoic acid], the EC50 in experiment [1] is under 0.01 µM; in experiment [2], over 1 µM; in experiment [3] it was over 1 µM; in experiment [4], under 1 µM.
Take `CCc1cccc(Cl)c1COc1ccc2c(c1)OCC(NCC(=O)O)C2` (centres unmarked) [Compound 34, 2-((7-((2-chloro-6-ethylbenzyl)oxy)chroman-3-yl)amino)acetic acid]: the 50% effective concentration (EC50) was under 0.01 µM in experiment [1], over 1 µM in experiment [2], over 1 µM in experiment [3] and under 1 µM in experiment [4].
For `O=C(O)CNC1COc2cc(OCc3c(Cl)cccc3Cl)ccc2C1` (centres unmarked) [Compound 35, 2-((7-((2,6-dichlorobenzyl)oxy)chroman-3-yl)amino)acetic acid], the half-maximal effective concentration (EC50) in experiment [1] was 0.1 to 1 µM; in experiment [2], over 1 µM; in experiment [3], over 1 µM; in experiment [4] it was under 1 µM.
For the molecule `O=C(O)C1CN(C2COc3cc(C#Cc4cc(F)ccc4F)ccc3C2)C1` (centres unmarked) [Compound 38, 1-(7-((2,5-difluorophenyl)ethynyl)chroman-3-yl)azetidine-3-carboxylic acid], the EC50 in experiment [1] is under 0.01 µM; in experiment [2] it was over 1 µM; in experiment [3], over 1 µM; in experiment [4], under 1 µM.
Take `O=C(O)C1CN(C2COc3cc(C#Cc4cccc(Cl)c4)ccc3C2)C1` (centres unmarked) [Compound 40, 1-(7-((3-chlorophenyl)ethynyl)chroman-3-yl)azetidine-3-carboxylic acid]: the concentration for a half-maximal effect (EC50) in experiment [1] was 0.01 to 0.1 µM; in experiment [2], over 1 µM; in experiment [3], over 1 µM; in experiment [4], under 1 µM.
On to `O=C(O)C1CN(C2COc3cc(C#Cc4ccccc4C(F)(F)F)ccc3C2)C1` (centres unmarked) [Compound 41, 1-(7-((2-(trifluoromethyl)phenyl)ethynyl)chroman-3-yl)azetidine-3-carboxylic acid], for which the concentration giving a half-maximal response (EC50) is 0.01 to 0.1 µM in experiment [1], over 1 µM in experiment [2], over 1 µM in experiment [3] and over 1 µM in experiment [4].
Regarding `O=C(O)C1CN(C2COc3cc(C#Cc4ccccc4OC(F)F)ccc3C2)C1` (centres unmarked) [Compound 42, 1-(7-((2-(difluoromethoxy)phenyl)ethynyl)chroman-3-yl)azetidine-3-carboxylic acid], the EC50 in experiment [1] was 0.01 to 0.1 µM; in experiment [2] it was over 1 µM; in experiment [3] it was over 1 µM; in experiment [4] it was over 1 µM.
In the case of `O=C(O)C1CN(C2COc3cc(C#Cc4c(Cl)cccc4Cl)ccc3C2)C1` (centres unmarked) [Compound 44, 1-(7-((2,6-dichlorophenyl)ethynyl)chroman-3-yl)azetidine-3-carboxylic acid], the EC50 in experiment [1] is 0.01 to 0.1 µM; in experiment [2] it was over 1 µM; in experiment [3] it was over 1 µM; in experiment [4], over 1 µM.
For `O=C(O)C1CN(C2COc3cc(C#Cc4c(F)cccc4F)ccc3C2)C1` (centres unmarked) [Compound 47, 1-(7-((2,6-difluorophenyl)ethynyl)chroman-3-yl)azetidine-3-carboxylic acid], the concentration for a half-maximal effect (EC50) is 0.01 to 0.1 µM in experiment [1], over 1 µM in experiment [2], over 1 µM in experiment [3] and under 1 µM in experiment [4].
As for `O=C(O)C12CC(NC3COc4cc(OCc5c(Cl)cccc5Cl)ccc4C3)(C1)C2` (centres unmarked) [Compound 48, 3-((7-((2,6-dichlorobenzyl)oxy)chroman-3-yl)amino)-bicyclo[1.1.1]pentane-1-carboxylic acid], the concentration for a half-maximal effect (EC50) in experiment [1] was 0.01 to 0.1 µM; in experiment [2] it was over 1 µM; in experiment [3] it was over 1 µM; in experiment [4], over 1 µM.
`O=C(O)C1CN(C2COc3cc(-c4ccc(OCc5ccc(Cl)cc5)cc4)ccc3C2)C1` (centres unmarked) [Compound 54, 1-(7-(4-((4-chlorobenzyl)oxy)phenyl)chroman-3-yl)azetidine-3-carboxylic acid]: the EC50 in experiment [1] was under 0.01 µM; in experiment [2] it was over 1 µM; in experiment [3], over 1 µM; in experiment [4], over 1 µM.
For `O=C(O)C1CN(C2COc3cc(-c4ccc(OCC5CCCCC5)cc4)ccc3C2)C1` (centres unmarked) [Compound 55, 1-(7-(4-(cyclohexylmethoxy)phenyl)chroman-3-yl)azetidine-3-carboxylic acid], the EC50 in experiment [1] was under 0.01 µM; in experiment [2], under 1 µM; in experiment [3], over 1 µM; in experiment [4], over 1 µM.
In the case of `O=C(O)C1CN(C2COc3cc(-c4ccc(OCc5cccc(F)c5F)cc4)ccc3C2)C1` (centres unmarked) [Compound 56, 1-(7-(4-((2,3-difluorobenzyl)oxy)phenyl)chroman-3-yl)azetidine-3-carboxylic acid], the EC50 is 0.01 to 0.1 µM in experiment [1], under 1 µM in experiment [2], over 1 µM in experiment [3] and over 1 µM in experiment [4].
`CCc1ccccc1COc1ccc2c(c1)OCC(N1CC(C(=O)O)C1)C2` (centres unmarked) [Compound 64, 1-(7-((2-ethylbenzyl)oxy)chroman-3-yl)azetidine-3-carboxylic acid]: the EC50 is 0.01 to 0.1 µM in experiment [1], over 1 µM in experiment [2], over 1 µM in experiment [3] and under 1 µM in experiment [4].
For the molecule `CCc1cccc(F)c1COc1ccc2c(c1)OCC(N1CC(C(=O)O)C1)C2` (centres unmarked) [Compound 65, 1-(7-((2-ethyl-6-fluorobenzyl)oxy)chroman-3-yl)azetidine-3-carboxylic acid], the half-maximal effective concentration (EC50) in experiment [1] was under 0.01 µM; in experiment [2], over 1 µM; in experiment [3], over 1 µM; in experiment [4] it was under 1 µM.
As for `O=C(O)C1CN(C2COc3cc(OCc4c(F)cccc4C(F)(F)F)ccc3C2)C1` (centres unmarked) [Compound 66, 1-(7-((2-fluoro-6-(trifluoromethyl)benzyl)oxy)chroman-3-yl)azetidine-3-carboxylic acid], the EC50 was 0.01 to 0.1 µM in experiment [1], over 1 µM in experiment [2], over 1 µM in experiment [3] and under 1 µM in experiment [4].
For `O=C(O)C1CN(C2COc3cc(OCc4c(F)cccc4C4CC4)ccc3C2)C1` (centres unmarked) [Compound 67, 1-(7-((2-cyclopropyl-6-fluorobenzyl)oxy)chroman-3-yl)azetidine-3-carboxylic acid], the EC50 in experiment [1] is under 0.01 µM; in experiment [2] it was over 1 µM; in experiment [3], over 1 µM; in experiment [4], under 1 µM.
As to `O=C(O)C1CN(C2COc3cc(OCc4ccc(Cl)cc4Cl)ccc3C2)C1` (centres unmarked) [Compound 68, 1-(7-((2,4-dichlorobenzyl)oxy)chroman-3-yl)azetidine-3-carboxylic acid], the half-maximal effective concentration (EC50) in experiment [1] is 0.1 to 1 µM; in experiment [2], over 1 µM; in experiment [3] it was over 1 µM; in experiment [4], over 1 µM.
For the molecule `O=C(O)C1CN(C2COc3cc(OCCc4c(Cl)cccc4Cl)ccc3C2)C1` (centres unmarked) [Compound 69, 1-(7-(2,6-dichlorophenethoxy)chroman-3-yl)azetidine-3-carboxylic acid], the half-maximal effective concentration (EC50) is 0.01 to 0.1 µM in experiment [1], over 1 µM in experiment [2], over 1 µM in experiment [3] and over 1 µM in experiment [4].
